In publication PMC2890073 (Immunogenetics, 2010):
Where no end group is shown, it is not given here.

Assays:
HLA-B*0702 = HLA-B*0702 (Homo sapiens, UniProt P01889); assay: HLA-B*0702 peptide binding assay
HLA-B*5301 = HLA-B*5301 (Homo sapiens, UniProt P01889, A329T/A93T/A95T/C349S/D201E/D98Y/E176V/E187L/E204Q/E69T/G107R/I218V/K202T/L105A/L119I/N104I/Q94N/R106L/R155S/R180L/S101N/S121R/S35A/S48A/T118I/V127L/V306I/V36M/Y140S/Y91F); assay: HLA-B*5301 peptide binding assay
HLA-B*3501 = HLA-B*3501 (Homo sapiens, UniProt P01889, A329T/A93T/A95T/C349S/D201E/D98Y/E176V/E187L/E204Q/E69T/I218V/K202T/L119I/Q94N/R155S/R180L/S121R/S35A/S48A/T118I/V127L/V306I/V36M/Y140S/Y91F); assay: HLA-B*3501 peptide binding assay

**Q.** How did the IC50 (HLA-B*0702) turn out when `CC(C)C[C@H](NC(=O)[C@@H]1CCCN1C(=O)[C@@H](NC(=O)[C@H](CCC(N)=O)NC(=O)[C@@H]1CCCN1C(=O)[C@@H](NC(=O)[C@@H](NC(=O)[C@@H]1CCCN1C(=O)[C@@H](N)Cc1ccccc1)C(C)C)[C@@H](C)O)C(C)C)C(=O)O` was run?
**A.** Its IC50 is 1 nM.

**Q.** Which IC50 (HLA-B*5301) does the source give for `CC(C)C[C@H](NC(=O)[C@@H]1CCCN1C(=O)[C@@H](N)Cc1ccc(O)cc1)C(=O)N[C@H](C(=O)N[C@@H](Cc1ccccc1)C(=O)NCC(=O)N[C@@H](Cc1c[nH]c2ccccc12)C(=O)N[C@@H](CS)C(=O)N[C@@H](Cc1ccccc1)C(=O)O)[C@@H](C)O` here?
**A.** The IC50 was 9.5 nM.

**Q.** With HPDIVIYQY as the compound, how does the IC50 (HLA-B*3501) read?
**A.** The IC50 was 7.9 nM.
